From US9556179B2 (BRISTOL-MYERS SQUIBB COMPANY, priority 2012, dated 2017)

What was measured:
CK1ε = CK1ε (Homo sapiens (Human), UniProt P49674); assay: CK1ε kinase assay (Caliper LABCHIP electrophoretic separation of fluoresceinated peptide substrate and product); assay type: biochemical; details: 200 pM enzyme, 50 μM ATP, 22 hours at room temperature
How it was run: (§1)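 Reactions ran 22 hours at room temperature and were stopped with EDTA. Phosphorylated product and unphosphorylated substrate were then separated electrophoretically. Compounds were tested at eleven concentrations, and IC50 values came from non-linear regression.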

CK1δ = CK1δ (Homo sapiens (Human), UniProt P48730); assay: CK1δ kinase assay (Caliper LABCHIP electrophoretic separation of fluoresceinated peptide substrate and product); assay type: biochemical; details: 200 pM enzyme, 50 μM ATP, 22 hours at room temperature
Chain of CK1δ (P48730 whole entry): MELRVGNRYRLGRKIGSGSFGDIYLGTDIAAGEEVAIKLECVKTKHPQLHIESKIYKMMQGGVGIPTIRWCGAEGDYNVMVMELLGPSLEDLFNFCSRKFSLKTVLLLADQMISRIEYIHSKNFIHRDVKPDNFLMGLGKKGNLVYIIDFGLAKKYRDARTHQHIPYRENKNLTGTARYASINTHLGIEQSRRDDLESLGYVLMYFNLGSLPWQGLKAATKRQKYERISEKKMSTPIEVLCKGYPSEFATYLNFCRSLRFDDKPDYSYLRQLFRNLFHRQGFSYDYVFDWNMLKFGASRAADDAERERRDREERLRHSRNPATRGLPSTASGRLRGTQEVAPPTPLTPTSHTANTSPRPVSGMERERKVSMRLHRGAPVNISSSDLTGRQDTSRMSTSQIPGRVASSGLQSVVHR
How it was run: as §1

Chain of CK1ε (P49674 whole entry): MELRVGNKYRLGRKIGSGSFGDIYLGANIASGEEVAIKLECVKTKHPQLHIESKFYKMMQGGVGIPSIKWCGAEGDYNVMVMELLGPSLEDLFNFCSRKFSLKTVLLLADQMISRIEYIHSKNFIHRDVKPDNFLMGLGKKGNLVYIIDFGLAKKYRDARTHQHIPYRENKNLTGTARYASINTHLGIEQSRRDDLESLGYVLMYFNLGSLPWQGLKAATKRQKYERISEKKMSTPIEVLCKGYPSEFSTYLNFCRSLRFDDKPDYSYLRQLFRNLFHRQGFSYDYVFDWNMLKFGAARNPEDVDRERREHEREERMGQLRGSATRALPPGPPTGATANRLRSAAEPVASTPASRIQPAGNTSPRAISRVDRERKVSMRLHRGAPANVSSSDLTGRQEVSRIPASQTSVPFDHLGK

IC50 (CK1ε)	IC50 (CK1δ)	Structure (SMILES)
156 nM	41.5 nM	CC(C)(C)c1cc(Cn2cnc(-c3ccc(F)cc3)c2-c2ccc3nc(NC(=O)c4ccnc(F)c4)cn3n2)n[nH]1 [Compound 264]
0.719 nM	0.147 nM	O=C(Nc1cn2nc(-c3c(-c4ccc(F)cc4)ncn3CCc3cn[nH]c3)ccc2n1)c1ccnc(F)c1 [Compound 265]
14.1 nM	0.416 nM	O=C(Nc1cn2nc(-c3c(-c4ccc(F)cc4)ncn3CC(=O)N3CCOCC3)ccc2n1)c1ccnc(F)c1 [Compound 266, 2-fluoro-N-(6-(4-(4-fluorophenyl)-1-(2-(4-morpholinyl)-2-oxoethyl)-1H-imidazol-5-yl)imidazo[1,2-b]pyridazin-2-yl)isonicotinamide]
1.77 nM	0.287 nM	O=C1CN(CCn2cnc(-c3ccc(F)cc3)c2-c2ccc3nc(NC(=O)c4ccnc(F)c4)cn3n2)CCN1 [Compound 267, 2-fluoro-N-(6-(4-(4-fluorophenyl)-1-(2-(3-oxo-1-piperazinyl)ethyl)-1H-imidazol-5-yl)imidazo[1,2-b]pyridazin-2-yl)isonicotinamide]
7.57 nM	0.419 nM	NC(=O)Cn1cnc(-c2ccc(F)cc2)c1-c1ccc2nc(NC(=O)c3ccnc(F)c3)cn2n1 [Compound 268, N-(6-(1-(2-amino-2-oxoethyl)-4-(4-fluorophenyl)-1H-imidazol-5-yl)imidazo[1,2-b]pyridazin-2-yl)-2-fluoroisonicotinamide]
9.39 nM	1.08 nM	Cn1ccc(Cn2cnc(-c3ccc(F)cc3)c2-c2ccc3nc(NC(=O)c4ccnc(F)c4)cn3n2)n1 [Compound 269, 2-fluoro-N-(6-(4-(4-fluorophenyl)-1-((1-methyl-1H-pyrazol-3-yl)methyl)-1H-imidazol-5-yl)imidazo[1,2-b]pyridazin-2-yl) isonicotinamide]
72.5 nM	9.45 nM	O=C(Nc1cn2nc(-c3c(-c4ccc(F)cc4)ncn3Cc3cc(C4CC4)[nH]n3)ccc2n1)c1ccnc(F)c1 [Compound 270, N-(6-(1-((5-cyclopropyl-1H-pyrazol-3-yl)methyl)-4-(4-fluorophenyl)-1H-imidazol-5-yl)imidazo[1,2-b]pyridazin-2-yl)-2-fluoroiso-nicotinamide]
5.97 nM	0.897 nM	Cc1nccn1CCCn1cnc(-c2ccc(F)cc2)c1-c1ccc2nc(NC(=O)c3ccnc(F)c3)cn2n1 [Compound 271, 2-fluoro-N-(6-(4-(4-fluorophenyl)-1-(3-(2-methyl-1H-imidazol-1-yl)propyl)-1H-imidazol-5-yl)imidazo[1,2-b]pyridazin-2-yl) isonicotinamide]
16.6 nM	1.65 nM	O=C(Nc1cn2nc(-c3c(-c4ccc(F)cc4)ncn3CCN3CCCC3=O)ccc2n1)c1ccnc(F)c1 [Compound 272, 2-fluoro-N-(6-(4-(4-fluorophenyl)-1-(2-(2-oxo-1-pyrrolidinyl)ethyl)-1H-imidazol-5-yl)imidazo[1,2-b]pyridazin-2-yl)isonicotinamide]
1.01 nM	0.257 nM	CCCn1cnc(-c2ccc(F)cc2)c1-c1ccc2nc(NC(=O)C(C)(C)C)cn2n1 [Compound 273, N-(6-(4-(4-Fluorophenyl)-1-propyl-1H-imidazol-5-yl)imidazo[1,2-b]pyridazin-2-yl)pivalamide]
8.98 nM	0.635 nM	CC(C)(C)C(=O)Nc1cn2nc(-c3c(-c4ccc(F)cc4)ncn3CCO)ccc2n1 [Compound 274, N-(6-(4-(4-fluorophenyl)-1-(2-hydroxyethyl)-1H-imidazol-5-yl)imidazo[1,2-b]pyridazin-2-yl)pivalamide]
4.23 nM	0.545 nM	CC(C)(C)C(=O)Nc1cn2nc(-c3c(-c4ccc(F)cc4)ncn3Cc3ccccc3)ccc2n1 [Compound 275, N-(6-(1-benzyl-4-(4-fluorophenyl)-1H-imidazol-5-yl)imidazo[1,2-b]pyridazin-2-yl)pivalamide]
35.9 nM	3.88 nM	CC(C)(C)C(=O)Nc1cn2nc(-c3[nH]cnc3-c3ccc(F)cc3)ccc2n1 [Compound 276, N-(6-(4-(4-fluorophenyl)-1H-imidazol-5-yl)imidazo[1,2-b]pyridazin-2-yl)pivalamide]
